# Values of other authors in patent US20080021079A1, “Compounds, Compositions, and Methods” (priority 2003, published 2008).
# Tested on: A549 cells
row,GI50,SMILES
1,1000 nM,O=c1[nH]cc(F)c(=O)[nH]1 [5-fluorouracil]
2,63 nM,COc1cccc2c1C(=O)c1c(O)c3c(c(O)c1C2=O)C[C@@](O)(C(=O)CO)C[C@@H]3O[C@H]1C[C@H](N)[C@H](O)[C@H](C)O1 [doxorubicin]
3,500000 nM,NC(=O)NO [hydroxyurea]
4,4 nM,CC(=O)O[C@H]1C(=O)[C@@]2(C)[C@H]([C@H](OC(=O)c3ccccc3)[C@]3(O)C[C@H](OC(=O)[C@H](O)[C@@H](NC(=O)c4ccccc4)c4ccccc4)C(C)=C1C3(C)C)[C@]1(OC(C)=O)CO[C@@H]1C[C@@H]2O [paclitaxel]
